Experimental data published in ChEMBL document CHEMBL5442219.

Legend:
Details in all cases: Compound concentration 10 µM
[1] = molecular target: D(3) dopamine receptor (Homo sapiens) (UniProt P35462)
Description: PDSP Primary Binding target: DRD3 - Compounds are tested at 10 uM concentration, plate are incubated at room temperature in the dark for 90 minutes. Reaction are stopped by vacuum filtration onto 0.3% polyethyleneimine soaked filter mats using Filtermate harvester. Scintilation cocktail is then melted onto microwave-dried filters on a hot plate and the radio activity is counted in Microbia counter.

[2] = molecular target: T1, 5-hydroxytryptamine receptor 1A (Homo sapiens) (UniProt P08908)
T1 sequence (whole entry): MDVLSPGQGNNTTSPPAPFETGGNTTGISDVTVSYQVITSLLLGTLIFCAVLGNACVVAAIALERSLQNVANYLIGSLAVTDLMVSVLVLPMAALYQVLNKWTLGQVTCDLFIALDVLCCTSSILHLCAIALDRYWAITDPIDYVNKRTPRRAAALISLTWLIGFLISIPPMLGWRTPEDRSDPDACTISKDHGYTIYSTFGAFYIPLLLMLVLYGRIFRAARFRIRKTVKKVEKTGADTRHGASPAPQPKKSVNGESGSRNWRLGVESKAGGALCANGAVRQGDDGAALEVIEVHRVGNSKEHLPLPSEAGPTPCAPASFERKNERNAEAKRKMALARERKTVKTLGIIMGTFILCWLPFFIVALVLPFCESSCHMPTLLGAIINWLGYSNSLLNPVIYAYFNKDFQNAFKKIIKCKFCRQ
Description: PDSP Primary Binding target: HTR1A - Compounds are tested at 10 uM concentration, plate are incubated at room temperature in the dark for 90 minutes. Reaction are stopped by vacuum filtration onto 0.3% polyethyleneimine soaked filter mats using Filtermate harvester. Scintilation cocktail is then melted onto microwave-dried filters on a hot plate and the radio activity is counted in Microbia counter.

[3] = molecular target: T2, Alpha-2B adrenergic receptor (Homo sapiens) (UniProt P18089)
T2 sequence (whole entry): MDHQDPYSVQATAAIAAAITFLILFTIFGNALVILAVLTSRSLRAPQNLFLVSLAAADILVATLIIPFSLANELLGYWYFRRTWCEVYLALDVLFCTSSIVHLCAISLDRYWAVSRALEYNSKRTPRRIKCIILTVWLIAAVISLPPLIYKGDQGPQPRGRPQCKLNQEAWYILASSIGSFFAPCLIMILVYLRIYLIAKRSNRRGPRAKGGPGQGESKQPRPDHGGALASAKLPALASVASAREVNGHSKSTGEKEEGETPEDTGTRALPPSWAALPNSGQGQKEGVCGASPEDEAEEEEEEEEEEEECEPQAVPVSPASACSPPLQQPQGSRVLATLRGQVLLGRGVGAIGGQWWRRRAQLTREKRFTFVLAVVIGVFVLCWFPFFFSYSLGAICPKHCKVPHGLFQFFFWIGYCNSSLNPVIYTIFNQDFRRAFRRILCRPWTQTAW
Description: PDSP Primary Binding target: ADRA2B - Compounds are tested at 10 uM concentration, plate are incubated at room temperature in the dark for 90 minutes. Reaction are stopped by vacuum filtration onto 0.3% polyethyleneimine soaked filter mats using Filtermate harvester. Scintilation cocktail is then melted onto microwave-dried filters on a hot plate and the radio activity is counted in Microbia counter.

[4] = molecular target: T3, 5-hydroxytryptamine receptor 2C (Homo sapiens) (UniProt P28335)
T3 sequence (whole entry): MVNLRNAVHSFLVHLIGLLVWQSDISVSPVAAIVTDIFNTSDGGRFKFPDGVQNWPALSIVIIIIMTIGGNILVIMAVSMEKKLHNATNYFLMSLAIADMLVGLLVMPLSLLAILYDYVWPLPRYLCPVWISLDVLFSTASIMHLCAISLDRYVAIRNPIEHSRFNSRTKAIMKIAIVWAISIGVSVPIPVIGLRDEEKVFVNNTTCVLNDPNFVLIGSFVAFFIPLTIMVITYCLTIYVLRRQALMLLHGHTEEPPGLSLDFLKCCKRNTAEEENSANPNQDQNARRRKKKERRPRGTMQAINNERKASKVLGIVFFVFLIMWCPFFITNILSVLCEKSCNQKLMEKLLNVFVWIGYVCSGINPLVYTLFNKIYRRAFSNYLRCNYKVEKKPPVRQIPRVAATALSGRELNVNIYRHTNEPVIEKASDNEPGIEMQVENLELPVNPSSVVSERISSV
Description: PDSP Primary Binding target: HTR2C - Compounds are tested at 10 uM concentration, plate are incubated at room temperature in the dark for 90 minutes. Reaction are stopped by vacuum filtration onto 0.3% polyethyleneimine soaked filter mats using Filtermate harvester. Scintilation cocktail is then melted onto microwave-dried filters on a hot plate and the radio activity is counted in Microbia counter.

[5] = molecular target: 5-hydroxytryptamine receptor 5A (Homo sapiens) (UniProt P47898)
Sequence of 5-hydroxytryptamine receptor 5A (Homo sapiens) (P47898 whole entry): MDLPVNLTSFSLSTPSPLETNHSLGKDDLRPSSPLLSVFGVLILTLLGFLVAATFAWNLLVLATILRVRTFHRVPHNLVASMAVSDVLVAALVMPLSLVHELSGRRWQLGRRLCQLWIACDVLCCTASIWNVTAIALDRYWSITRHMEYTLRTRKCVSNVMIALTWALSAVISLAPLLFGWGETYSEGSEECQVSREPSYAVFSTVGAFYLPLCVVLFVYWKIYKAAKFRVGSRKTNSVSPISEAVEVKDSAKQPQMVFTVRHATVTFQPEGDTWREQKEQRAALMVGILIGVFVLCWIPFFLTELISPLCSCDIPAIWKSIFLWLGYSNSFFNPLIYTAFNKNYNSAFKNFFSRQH
Description: PDSP Primary Binding target: HTR5A - Compounds are tested at 10 uM concentration, plate are incubated at room temperature in the dark for 90 minutes. Reaction are stopped by vacuum filtration onto 0.3% polyethyleneimine soaked filter mats using Filtermate harvester. Scintilation cocktail is then melted onto microwave-dried filters on a hot plate and the radio activity is counted in Microbia counter.

[6] = molecular target: T4, Muscarinic acetylcholine receptor M2 (Homo sapiens) (UniProt P08172)
T4 sequence (whole entry): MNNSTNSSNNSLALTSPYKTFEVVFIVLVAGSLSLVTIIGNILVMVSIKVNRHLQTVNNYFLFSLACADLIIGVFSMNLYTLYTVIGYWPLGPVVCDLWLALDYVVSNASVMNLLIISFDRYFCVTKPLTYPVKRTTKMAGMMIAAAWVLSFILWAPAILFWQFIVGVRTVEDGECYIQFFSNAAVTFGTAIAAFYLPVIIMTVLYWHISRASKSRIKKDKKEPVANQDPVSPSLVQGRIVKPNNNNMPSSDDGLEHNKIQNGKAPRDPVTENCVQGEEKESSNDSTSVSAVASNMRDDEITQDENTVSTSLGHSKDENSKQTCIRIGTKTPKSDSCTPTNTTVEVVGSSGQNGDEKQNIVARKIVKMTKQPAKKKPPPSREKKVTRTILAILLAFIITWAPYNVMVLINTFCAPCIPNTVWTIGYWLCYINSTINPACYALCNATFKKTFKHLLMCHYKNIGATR
Description: PDSP Primary Binding target: CHRM2 - Compounds are tested at 10 uM concentration, plate are incubated at room temperature in the dark for 90 minutes. Reaction are stopped by vacuum filtration onto 0.3% polyethyleneimine soaked filter mats using Filtermate harvester. Scintilation cocktail is then melted onto microwave-dried filters on a hot plate and the radio activity is counted in Microbia counter.

[7] = molecular target: T5, 5-hydroxytryptamine receptor 3A (Homo sapiens) (UniProt P46098)
T5 sequence (whole entry): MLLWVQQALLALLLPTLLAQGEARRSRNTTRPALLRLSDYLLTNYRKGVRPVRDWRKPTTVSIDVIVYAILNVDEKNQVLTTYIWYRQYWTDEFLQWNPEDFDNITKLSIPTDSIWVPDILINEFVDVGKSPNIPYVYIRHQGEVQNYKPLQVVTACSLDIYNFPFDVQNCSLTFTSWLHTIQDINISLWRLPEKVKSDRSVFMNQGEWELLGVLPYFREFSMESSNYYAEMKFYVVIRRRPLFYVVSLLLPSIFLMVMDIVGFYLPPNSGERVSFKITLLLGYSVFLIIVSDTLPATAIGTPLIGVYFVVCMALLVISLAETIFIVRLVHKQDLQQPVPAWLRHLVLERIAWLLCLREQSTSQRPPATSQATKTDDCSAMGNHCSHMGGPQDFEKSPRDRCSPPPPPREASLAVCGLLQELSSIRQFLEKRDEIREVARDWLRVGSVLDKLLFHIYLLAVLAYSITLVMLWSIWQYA
Description: PDSP Primary Binding target: HTR3A - Compounds are tested at 10 uM concentration, plate are incubated at room temperature in the dark for 90 minutes. Reaction are stopped by vacuum filtration onto 0.3% polyethyleneimine soaked filter mats using Filtermate harvester. Scintilation cocktail is then melted onto microwave-dried filters on a hot plate and the radio activity is counted in Microbia counter.

[8] = molecular target: Sigma non-opioid intracellular receptor 1 (Homo sapiens) (UniProt Q99720)
Sequence of Sigma non-opioid intracellular receptor 1 (Homo sapiens) (Q99720 whole entry): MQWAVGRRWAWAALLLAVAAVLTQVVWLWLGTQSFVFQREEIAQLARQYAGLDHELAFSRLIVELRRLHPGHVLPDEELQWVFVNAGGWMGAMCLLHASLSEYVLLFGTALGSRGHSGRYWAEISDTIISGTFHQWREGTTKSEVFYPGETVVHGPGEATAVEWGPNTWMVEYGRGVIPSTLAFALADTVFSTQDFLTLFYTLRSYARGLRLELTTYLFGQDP
Description: PDSP Primary Binding target: SIGMAR1 - Compounds are tested at 10 uM concentration, plate are incubated at room temperature in the dark for 90 minutes. Reaction are stopped by vacuum filtration onto 0.3% polyethyleneimine soaked filter mats using Filtermate harvester. Scintilation cocktail is then melted onto microwave-dried filters on a hot plate and the radio activity is counted in Microbia counter.

[9] = molecular target: 5-hydroxytryptamine receptor 2B (Homo sapiens) (UniProt P41595)
Sequence of 5-hydroxytryptamine receptor 2B (Homo sapiens) (P41595 whole entry): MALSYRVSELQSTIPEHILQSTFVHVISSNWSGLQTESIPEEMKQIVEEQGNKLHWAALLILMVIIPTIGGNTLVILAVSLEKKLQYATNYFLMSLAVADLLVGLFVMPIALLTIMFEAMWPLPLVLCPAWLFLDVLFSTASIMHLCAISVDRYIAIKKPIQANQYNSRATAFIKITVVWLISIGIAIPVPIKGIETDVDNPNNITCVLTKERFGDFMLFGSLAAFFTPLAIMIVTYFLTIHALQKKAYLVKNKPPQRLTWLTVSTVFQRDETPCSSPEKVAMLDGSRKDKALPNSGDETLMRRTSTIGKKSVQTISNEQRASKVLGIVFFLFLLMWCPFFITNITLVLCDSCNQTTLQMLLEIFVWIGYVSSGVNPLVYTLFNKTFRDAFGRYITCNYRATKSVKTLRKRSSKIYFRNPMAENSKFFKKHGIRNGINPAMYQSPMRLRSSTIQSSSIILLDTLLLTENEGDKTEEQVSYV
Description: PDSP Primary Binding target: HTR2B - Compounds are tested at 10 uM concentration, plate are incubated at room temperature in the dark for 90 minutes. Reaction are stopped by vacuum filtration onto 0.3% polyethyleneimine soaked filter mats using Filtermate harvester. Scintilation cocktail is then melted onto microwave-dried filters on a hot plate and the radio activity is counted in Microbia counter.

[10] = molecular target: Kappa-type opioid receptor (Homo sapiens) (UniProt P41145)
Sequence of Kappa-type opioid receptor (Homo sapiens) (P41145 whole entry): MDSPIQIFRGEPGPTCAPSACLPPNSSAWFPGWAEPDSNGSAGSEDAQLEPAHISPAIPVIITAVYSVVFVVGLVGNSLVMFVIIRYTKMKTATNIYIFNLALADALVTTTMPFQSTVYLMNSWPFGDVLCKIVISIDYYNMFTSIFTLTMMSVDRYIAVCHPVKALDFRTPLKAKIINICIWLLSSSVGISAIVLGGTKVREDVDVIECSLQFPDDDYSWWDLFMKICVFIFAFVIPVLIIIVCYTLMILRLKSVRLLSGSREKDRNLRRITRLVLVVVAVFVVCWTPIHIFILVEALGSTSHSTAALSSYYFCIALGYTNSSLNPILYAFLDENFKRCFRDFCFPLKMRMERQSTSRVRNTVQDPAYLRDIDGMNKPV
Description: PDSP Primary Binding target: OPRK1 - Compounds are tested at 10 uM concentration, plate are incubated at room temperature in the dark for 90 minutes. Reaction are stopped by vacuum filtration onto 0.3% polyethyleneimine soaked filter mats using Filtermate harvester. Scintilation cocktail is then melted onto microwave-dried filters on a hot plate and the radio activity is counted in Microbia counter.

Measured: inhibition

Sequence of D(3) dopamine receptor (Homo sapiens) (P35462 whole entry): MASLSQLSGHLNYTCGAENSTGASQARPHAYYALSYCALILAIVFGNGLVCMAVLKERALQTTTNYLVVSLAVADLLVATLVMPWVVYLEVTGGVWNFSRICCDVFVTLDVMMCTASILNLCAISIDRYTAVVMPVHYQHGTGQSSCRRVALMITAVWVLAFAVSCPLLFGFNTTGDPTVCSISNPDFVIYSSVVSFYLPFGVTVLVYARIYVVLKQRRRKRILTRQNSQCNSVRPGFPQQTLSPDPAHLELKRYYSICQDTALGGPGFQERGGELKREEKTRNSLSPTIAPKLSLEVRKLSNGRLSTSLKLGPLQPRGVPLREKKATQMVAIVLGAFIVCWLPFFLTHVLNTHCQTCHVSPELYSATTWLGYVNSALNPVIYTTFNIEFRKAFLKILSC

C[C@@H](N)Cc1c[nH]cn1
inactive: [1] 8.41% | [2] -9.3% | [3] 9.47% | [4] 5.48% | [5] -3.48% | [6] -5.01% | [7] 5.88% | [8] 20.9% | [9] 35.1% | [10] -2.45%

N#Cc1ccc2[nH]cc(CCCCN3CCN(c4ccc5oc(C(N)=O)cc5c4)CC3)c2c1
inactive: [3] 47.1% | [4] 43.3% | [5] 40.6% | [6] -4.48% | [7] 46.7% | [10] 30.6%
active: [1] 95.2% | [2] 102% | [8] 99.1% | [9] 101%

COc1ccc(/C=C/CCCCOc2ccc(C(=O)c3cccc(C(=O)O)c3)cc2CCC(=O)O)cc1
active: [1] 56.1%
inactive: [2] 30.3% | [3] 29.1% | [4] 3.04% | [5] -8.69% | [6] 7.46% | [7] -4.61% | [8] 11.6% | [9] -2.42% | [10] 10.7%

COc1cc(-n2cnc3cc(-c4ccc(Cl)cc4)sc3c2=O)ccc1OCCN1CCCC1
active: [1] 68.5% | [4] 79.9% | [5] 85.3% | [6] 71.5% | [8] 98.9% | [9] 82.7%
inactive: [2] 8.71% | [3] 47.6% | [7] 22.5% | [10] 33.2%

NC[C@@H]1O[C@H](C23CC4CC(CC(C4)C2)C3)Cc2c1ccc(O)c2O
inactive: [2] 14.3% | [4] 31.6% | [5] 20.1% | [6] -9.03% | [7] 39.6% | [8] 48.5% | [9] 48.1% | [10] 12.2%
active: [1] 81% | [3] 64.3%

COc1cccc([C@@H](C)NCCCc2ccccc2Cl)c1
inactive: [6] 7% | [7] -2.74%
active: [1] 85% | [2] 54.6% | [3] 72.4% | [4] 91.8% | [5] 61.2% | [8] 97.4% | [9] 96.6% | [10] 65.3%

CCCCN1CCC(COC(=O)c2cc(Cl)c(N)c3c2OCCO3)CC1
active: [1] 58.8% | [4] 58.2% | [7] 72.4% | [8] 105% | [9] 68.3%
inactive: [2] -1.01% | [3] 33.3% | [5] -0.67% | [6] 5.99% | [10] 7.01%

O=S1(=O)c2cccc3cccc(c23)N1CCCN1CCN(c2ccc(F)cc2)CC1
active: [1] 58.5% | [2] 91.6% | [3] 104% | [4] 97.4% | [5] 58.9% | [8] 89.3% | [9] 93.9% | [10] 56%
inactive: [6] 10.3% | [7] 32.9%

CCc1ccc(OCc2ccccc2C(=O)Nc2ccc3nc(C)cc(N)c3c2)cc1
active: [3] 55.2% | [4] 91.2% | [5] 52.3% | [8] 58.1% | [9] 74.8% | [10] 72%
inactive: [1] 33.9% | [2] 9.8% | [6] 11.9% | [7] 24.7%

CCCSc1nc(N[C@@H]2C[C@H]2c2ccc(F)c(F)c2)c2nnn([C@@H]3C[C@H](OCCO)[C@@H](O)[C@H]3O)c2n1
inactive: [1] 29.6% | [2] 11.6% | [3] 41.2% | [4] -3.61% | [5] 33.2% | [6] -1.83% | [7] 4.33% | [8] 35.4% | [9] 33.3% | [10] 27.5%

COc1ccc(S(=O)(=O)N2c3ccc(Cl)cc3[C@](O)(c3ccccc3Cl)[C@@H]2C(=O)N2CCC[C@H]2C(N)=O)cc1OC
inactive: [1] 40.4% | [2] 8.75% | [3] 0.34% | [4] 21.8% | [5] -7.91% | [6] 29.5% | [7] -3.87% | [8] 16.4% | [9] 0.08% | [10] 16.3%

Cc1cc(C(=O)N2Cc3cnn(C)c3Nc3ccccc32)ccc1CNC(=O)N1CCC[C@H]1C(=S)N1CCCN(C)CC1
active: [1] 87.3% | [6] 68.4% | [10] 61.7%
inactive: [2] -3.18% | [3] 2.87% | [4] -8.65% | [5] 35% | [7] 25.9% | [8] -7.44% | [9] 18.3%

Cc1nc(-c2ccc(-c3ccc(C(=O)N4CCc5cc6c(cc54)C4(CCN(C)CC4)CO6)cc3)c(C)c2)no1
active: [3] 69.5% | [4] 85.3% | [8] 75.2% | [9] 88.9%
inactive: [1] 18.8% | [2] 9.17% | [5] 14% | [6] 44.5% | [7] 43.9%

c1ccc(N2CCN(Cc3nc4ccccc4[nH]3)CC2)nc1
inactive: [1] 33.1% | [2] 35.1% | [4] -9.96% | [5] 11.8% | [6] -8.11% | [7] -2.37% | [9] 16.4%
active: [8] 50.5% | [10] 54.7%

CN1C2CCC1CC(OC(c1ccc(F)cc1)c1ccc(F)cc1)C2 (stereo not given)
inactive: [2] 21.6%
active: [1] 79.5% | [4] 92.9% | [5] 83.1% | [6] 111% | [7] 79.5% | [8] 93.6% | [9] 102% | [10] 65.7%

Oc1ccc2c3c1O[C@H]1c4[nH]c5c(c4C[C@@]4(O)[C@@H](C2)N(CC2CC2)CC[C@]314)C[C@@]1(O)[C@H]2Cc3ccc(O)c4c3[C@@]1(CCN2CC1CC1)[C@H]5O4
active: [10] 105%
inactive: [1] 4.68% | [3] 8.68% | [4] 10.5% | [5] 8.31% | [6] 0.51% | [7] 6.54% | [8] 9.49% | [9] 14.2%

C[C@@H](NCCCc1cccc(C(F)(F)F)c1)c1cccc2ccccc12
inactive: [3] 39.4% | [6] 42% | [7] 15.4%
active: [1] 94.4% | [2] 87.7% | [4] 72.6% | [5] 81.9% | [9] 96.3% | [10] 79.3%
